Measurements published in ChEMBL document CHEMBL1275577, “Study of the in vitro activities of rifaximin and comparator agents against 536 anaerobic intestinal bacteria from the perspective of potential utility in pathology involving bowel flora” (Antimicrob Agents Chemother, 2009).
Values after ≈ are worked out from the molar mass of the structure shown.

Assays:
Type in all cases: functional
Eubacterium cylindroides = assay: Antimicrobial activity against Eubacterium cylindroides by Wadsworth agar dilution method; conditions: Faecalitalea cylindroides
[1] = system: Clostridium aminobutyricum; assay: Antimicrobial activity against Clostridium aminobutyricum by Wadsworth agar dilution method
Clostridium butyricum = assay: Antimicrobial activity against Clostridium butyricum by Wadsworth agar dilution method
Cutibacterium acnes = assay: Antimicrobial activity against Propionibacterium acnes by Wadsworth agar dilution method
[2] = system: Pseudoramibacter alactolyticus; assay: Antimicrobial activity against Eubacterium alactolyticum by Wadsworth agar dilution method
Clostridium glycolicum = assay: Antimicrobial activity against Clostridium glycolicum by Wadsworth agar dilution method; conditions: Terrisporobacter glycolicus
[3] = system: Bacteroides thetaiotaomicron; assay: Antimicrobial activity against Bacteroides thetaiotaomicron by Wadsworth agar dilution method
Blautia luti = assay: Antimicrobial activity against Ruminococcus luti by Wadsworth agar dilution method
Schaalia meyeri = assay: Antimicrobial activity against Actinomyces meyeri by Wadsworth agar dilution method
[4] = system: Peptostreptococcus anaerobius; assay: Antimicrobial activity against Peptostreptococcus anaerobius by Wadsworth agar dilution method
[5] = system: Propionibacterium propionicum; assay: Antimicrobial activity against Propionibacterium propionicum by Wadsworth agar dilution method; conditions: Arachnia propionica
Ruminococcus torques = assay: Antimicrobial activity against Ruminococcus torques by Wadsworth agar dilution method; conditions: Mediterraneibacter torques
Schaalia odontolytica = assay: Antimicrobial activity against Actinomyces odontolyticus by Wadsworth agar dilution method
Propionibacterium avidum = assay: Antimicrobial activity against Propionibacterium avidum by Wadsworth agar dilution method; conditions: Cutibacterium avidum
Clostridium hathewayi = assay: Antimicrobial activity against Clostridium hathewayi by Wadsworth agar dilution method; conditions: Hungatella hathewayi
[6] = system: Desulfovibrio fairfieldensis; assay: Antimicrobial activity against Desulfovibrio fairfieldensis by Wadsworth agar dilution method
Eubacterium biforme = assay: Antimicrobial activity against Eubacterium biforme by Wadsworth agar dilution method; conditions: Holdemanella biformis
Prevotella corporis = assay: Antimicrobial activity against Prevotella corporis by Wadsworth agar dilution method
Bifidobacterium breve = assay: Antimicrobial activity against Bifidobacterium breve by Wadsworth agar dilution method
Clostridium sp. = assay: Antimicrobial activity against Clostridium sp. by Wadsworth agar dilution method
Clostridium septicum = assay: Antimicrobial activity against Clostridium septicum by Wadsworth agar dilution method
Eubacterium limosum = assay: Antimicrobial activity against Eubacterium limosum by Wadsworth agar dilution method
Clostridium cadaveris = assay: Antimicrobial activity against Clostridium cadaveris by Wadsworth agar dilution method
Clostridium scindens = assay: Antimicrobial activity against Clostridium scindens by Wadsworth agar dilution method
Ruminococcus obeum = assay: Antimicrobial activity against Ruminococcus obeum by Wadsworth agar dilution method; conditions: Blautia obeum
Bacteroides fragilis = assay: Antimicrobial activity against Bacteroides fragilis by Wadsworth agar dilution method
[7] = system: Lacticaseibacillus rhamnosus; assay: Antimicrobial activity against Lactobacillus rhamnosus by Wadsworth agar dilution method
[8] = Antimicrobial activity against Bifidobacterium pseudocatenulatum by Wadsworth agar dilution method
Bacteroides ovatus = assay: Antimicrobial activity against Bacteroides ovatus by Wadsworth agar dilution method
[9] = system: Parabacteroides distasonis; assay: Antimicrobial activity against Parabacteroides distasonis by Wadsworth agar dilution method
Parvimonas micra = assay: Antimicrobial activity against Peptostreptococcus micros by Wadsworth agar dilution method
Fusobacterium varium = assay: Antimicrobial activity against Fusobacterium varium by Wadsworth agar dilution method
Bacteroides nordii = assay: Antimicrobial activity against Bacteroides nordii by Wadsworth agar dilution method
Clostridium disporicum = assay: Antimicrobial activity against Clostridium disporicum by Wadsworth agar dilution method
Holdemania filiformis = assay: Antimicrobial activity against Holdemania filiformis by Wadsworth agar dilution method
Desulfovibrio sp. = assay: Antimicrobial activity against Desulfovibrio sp. by Wadsworth agar dilution method
Clostridium leptum = assay: Antimicrobial activity against Clostridium leptum by Wadsworth agar dilution method
[10] = system: Ruminococcus flavefaciens; assay: Antimicrobial activity against Ruminococcus flavefaciens by Wadsworth agar dilution method
[11] = system: Prevotella melaninogenica; assay: Antimicrobial activity against Prevotella melaninogenica by Wadsworth agar dilution method
Clostridium bolteae = assay: Antimicrobial activity against Clostridium bolteae by Wadsworth agar dilution method; conditions: Enterocloster bolteae
Porphyromonas somerae = assay: Antimicrobial activity against Porphyromonas somerae by Wadsworth agar dilution method
[12] = system: Paeniclostridium sordellii; assay: Antimicrobial activity against Clostridium sordellii by Wadsworth agar dilution method; conditions: Paraclostridium sordellii
Desulfovibrio vulgaris = assay: Antimicrobial activity against Desulfovibrio vulgaris by Wadsworth agar dilution method; conditions: Nitratidesulfovibrio vulgaris
Fusobacterium nucleatum = assay: Antimicrobial activity against Fusobacterium nucleatum by Wadsworth agar dilution method
[13] = system: Clostridium lactatifermentans; assay: Antimicrobial activity against Clostridium lactatifermentans by Wadsworth agar dilution method; conditions: Anaerotignum lactatifermentans
[14] = system: Limosilactobacillus fermentum; assay: Antimicrobial activity against Lactobacillus fermentum by Wadsworth agar dilution method
Clostridium sporogenes = assay: Antimicrobial activity against Clostridium sporogenes by Wadsworth agar dilution method

Work on NC[C@@H]1O[C@H](O[C@H]2[C@@H](O)[C@H](O[C@@H]3[C@@H](O)[C@H](N)C[C@H](N)[C@H]3O[C@H]3O[C@H](CN)[C@@H](O)[C@H](O)[C@H]3N)O[C@@H]2CO)[C@H](N)[C@@H](O)[C@@H]1O [FRAMYCETIN] yielded an MIC50 (Eubacterium cylindroides) of 128 µg/mL (≈ 208 µM), an MIC90 (Eubacterium cylindroides) of 1020 µg/mL (≈ 1670 µM) and an MIC50 [1] of 256 µg/mL (≈ 416 µM). For the same compound, the MIC90 [1] was 1020 µg/mL (≈ 1670 µM), the MIC50 (Clostridium butyricum) was 256 µg/mL (≈ 416 µM) and the MIC90 (Clostridium butyricum) was 1020 µg/mL (≈ 1670 µM). It also gave an MIC50 (Cutibacterium acnes) of 128 µg/mL (≈ 208 µM), an MIC90 (Cutibacterium acnes) of 1020 µg/mL (≈ 1670 µM) and an MIC50 [2] of 128 µg/mL (≈ 208 µM). It also gave an MIC90 [2] of 1020 µg/mL (≈ 1670 µM), an MIC50 (Clostridium glycolicum) of 256 µg/mL (≈ 416 µM) and an MIC90 (Clostridium glycolicum) of 1020 µg/mL (≈ 1670 µM). For the same compound, the MIC50 [3] was over 1020 µg/mL, the MIC90 [3] was over 1020 µg/mL and the MIC50 (Blautia luti) was 128 µg/mL (≈ 208 µM). It also gave an MIC90 (Blautia luti) of 512 µg/mL (≈ 833 µM), an MIC50 (Schaalia meyeri) of 128 µg/mL (≈ 208 µM) and an MIC90 (Schaalia meyeri) of 1020 µg/mL (≈ 1670 µM). The MIC50 [4] was 128 µg/mL (≈ 208 µM), the MIC90 [4] was 512 µg/mL (≈ 833 µM) and the MIC50 [5] was 128 µg/mL (≈ 208 µM). It also gave an MIC90 [5] of 1020 µg/mL (≈ 1670 µM), an MIC50 (Ruminococcus torques) of 128 µg/mL (≈ 208 µM) and an MIC90 (Ruminococcus torques) of 512 µg/mL (≈ 833 µM). The MIC50 (Schaalia odontolytica) was 128 µg/mL (≈ 208 µM), the MIC90 (Schaalia odontolytica) was 1020 µg/mL (≈ 1670 µM) and the MIC50 (Propionibacterium avidum) was 128 µg/mL (≈ 208 µM). For the same compound, the MIC90 (Propionibacterium avidum) was 1020 µg/mL (≈ 1670 µM), the MIC50 (Clostridium hathewayi) was 64 µg/mL (≈ 104 µM) and the MIC90 (Clostridium hathewayi) was 512 µg/mL (≈ 833 µM). The MIC50 [6] was 256 µg/mL (≈ 416 µM), the MIC90 [6] was 1020 µg/mL (≈ 1670 µM) and the MIC50 (Eubacterium biforme) was 128 µg/mL (≈ 208 µM). It also gave an MIC90 (Eubacterium biforme) of 1020 µg/mL (≈ 1670 µM), an MIC50 (Prevotella corporis) of 512 µg/mL (≈ 833 µM) and an MIC90 (Prevotella corporis) of 1020 µg/mL (≈ 1670 µM). It also gave an MIC50 (Bifidobacterium breve) of 128 µg/mL (≈ 208 µM), an MIC90 (Bifidobacterium breve) of 1020 µg/mL (≈ 1670 µM) and an MIC50 (Clostridium sp.) of 256 µg/mL (≈ 416 µM). For the same compound, the MIC90 (Clostridium sp.) was 1020 µg/mL (≈ 1670 µM), the MIC50 (Clostridium septicum) was 256 µg/mL (≈ 416 µM) and the MIC90 (Clostridium septicum) was 1020 µg/mL (≈ 1670 µM). For the same compound, the MIC50 (Eubacterium limosum) was 128 µg/mL (≈ 208 µM), the MIC90 (Eubacterium limosum) was 1020 µg/mL (≈ 1670 µM) and the MIC50 (Clostridium cadaveris) was 256 µg/mL (≈ 416 µM). The MIC90 (Clostridium cadaveris) was 1020 µg/mL (≈ 1670 µM), the MIC50 (Clostridium scindens) was 256 µg/mL (≈ 416 µM) and the MIC90 (Clostridium scindens) was 1020 µg/mL (≈ 1670 µM). For the same compound, the MIC50 (Ruminococcus obeum) was 128 µg/mL (≈ 208 µM), the MIC90 (Ruminococcus obeum) was 512 µg/mL (≈ 833 µM) and the MIC50 (Bacteroides fragilis) was over 1020 µg/mL. The MIC90 (Bacteroides fragilis) was over 1020 µg/mL, the MIC50 [7] was 128 µg/mL (≈ 208 µM) and the MIC90 [7] was 1020 µg/mL (≈ 1670 µM). For the same compound, the MIC50 [8] was 128 µg/mL (≈ 208 µM), the MIC90 [8] was 1020 µg/mL (≈ 1670 µM) and the MIC50 (Bacteroides ovatus) was over 1020 µg/mL. For the same compound, the MIC90 (Bacteroides ovatus) was over 1020 µg/mL, the MIC50 [9] was 1020 µg/mL (≈ 1670 µM) and the MIC90 [9] was over 1020 µg/mL. For the same compound, the MIC50 (Parvimonas micra) was 128 µg/mL (≈ 208 µM), the MIC90 (Parvimonas micra) was 512 µg/mL (≈ 833 µM) and the MIC50 (Fusobacterium varium) was 512 µg/mL (≈ 833 µM). It also gave an MIC90 (Fusobacterium varium) of over 1020 µg/mL, an MIC50 (Bacteroides nordii) of over 1020 µg/mL and an MIC90 (Bacteroides nordii) of over 1020 µg/mL. For the same compound, the MIC50 (Clostridium disporicum) was 256 µg/mL (≈ 416 µM), the MIC90 (Clostridium disporicum) was 1020 µg/mL (≈ 1670 µM) and the MIC50 (Holdemania filiformis) was 128 µg/mL (≈ 208 µM). It also gave an MIC90 (Holdemania filiformis) of 1020 µg/mL (≈ 1670 µM), an MIC50 (Desulfovibrio sp.) of 256 µg/mL (≈ 416 µM) and an MIC90 (Desulfovibrio sp.) of 1020 µg/mL (≈ 1670 µM). The MIC50 (Clostridium leptum) was 256 µg/mL (≈ 416 µM), the MIC90 (Clostridium leptum) was 1020 µg/mL (≈ 1670 µM) and the MIC50 [10] was 128 µg/mL (≈ 208 µM). It also gave an MIC90 [10] of 512 µg/mL (≈ 833 µM), an MIC50 [11] of 512 µg/mL (≈ 833 µM) and an MIC90 [11] of 1020 µg/mL (≈ 1670 µM). The MIC50 (Clostridium bolteae) was 256 µg/mL (≈ 416 µM), the MIC90 (Clostridium bolteae) was 1020 µg/mL (≈ 1670 µM) and the MIC50 (Porphyromonas somerae) was 512 µg/mL (≈ 833 µM). The MIC90 (Porphyromonas somerae) was over 1020 µg/mL, the MIC50 [12] was 256 µg/mL (≈ 416 µM) and the MIC90 [12] was 1020 µg/mL (≈ 1670 µM). It also gave an MIC50 (Desulfovibrio vulgaris) of 256 µg/mL (≈ 416 µM), an MIC90 (Desulfovibrio vulgaris) of 1020 µg/mL (≈ 1670 µM) and an MIC50 (Fusobacterium nucleatum) of 1020 µg/mL (≈ 1670 µM). It also gave an MIC90 (Fusobacterium nucleatum) of 1020 µg/mL (≈ 1670 µM), an MIC50 [13] of 256 µg/mL (≈ 416 µM) and an MIC90 [13] of 1020 µg/mL (≈ 1670 µM). For the same compound, the MIC50 [14] was 128 µg/mL (≈ 208 µM), the MIC90 [14] was 1020 µg/mL (≈ 1670 µM) and the MIC50 (Clostridium sporogenes) was 256 µg/mL (≈ 416 µM). For the same compound, the MIC90 (Clostridium sporogenes) was 1020 µg/mL (≈ 1670 µM).
